# Where “and” joins values, the source holds several entries; their conditions need not be identical. Equal values may be shown once.
# Experiments:
# [1] = Stability / precipitation of vancomycin in sols; type: physicochemical; conditions: water-free sol prepared as described by Böttcher et al
# Text: Vancomycin is a water-soluble drug. Sols with nominal vancomycin (Vancomycin-HCL, NovaPlus) concentrations of 5, 10, and 20% by weight were made by adding corresponding amounts of vancomycin dissolved in DI water to the sol. Although sols with various vancomycin concentrations were stable for several days, only freshly prepared mixtures were used for the application of the coatings.
# Modification of the process of sol preparation was required to avoid the precipitation. It was achieved by adding water at the TEOS hydrolysis step. […] The sols with vancomycin concentrations varying from 3 to 30% by weight were stable over several days. The sols of modified compositions were successfully used for depositing vancomycin-loaded thin xerogel films to a Ti alloy substrate.
# Staphylococcus aureus = conditions: against Staphylococcus aureus; cited from earlier work
smiles,measurement,setting,value
CN[C@H](CC(C)C)C(=O)N[C@H]1C(=O)N[C@@H](CC(N)=O)C(=O)N[C@H]2C(=O)N[C@H]3C(=O)N[C@H](C(=O)N[C@H](C(=O)O)c4cc(O)cc(O)c4-c4cc3ccc4O)[C@H](O)c3ccc(c(Cl)c3)Oc3cc2cc(c3O[C@@H]2O[C@H](CO)[C@@H](O)[C@H](O)[C@H]2O[C@H]2C[C@](C)(N)[C@H](O)[C@H](C)O2)Oc2ccc(cc2Cl)[C@H]1O [vancomycin],precipitation on adding a water solution of vancomycin to a sol,[1],immediate precipitation of the drug in the sol
same,Minimal Inhibitory Concentration (MIC),Staphylococcus aureus,1.5 to 3 µg/mL and 1.5 to 3.12 µg/mL

# Reference: patent US7850994B1, “Xerogel films for the controlled release of pharmaceutically active molecules” (The Trustees of the University of Pennsylvania, priority 2005, dated 2010)
